Results published in the supplement of paper PMC4862054.
Blank lines part the entries; values can stand above or below the molecule they belong to.

Experiments:
MDA-MB-468 [1] = conditions: 72 h
Procedure, shortened: (§1)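 Breast cancer cell lines (20 µl suspension) were seeded into 384-well plates holding compound at 5 concentrations in 10-fold steps over a compound-specific 10,000-fold range, then incubated 72 h. Cell death was read first by CellTox Green fluorescence (485/520 nm), then viability by CellTiter-Glo luminescence after 10 min at room temperature. Each plate was normalised to 0.1 % DMSO and a positive kill control. EC50 was fitted from the dose-response curves and censored at the top concentration.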

BT-474 [2] = conditions: 72 h
Procedure, shortened: as §1

BT-549 [3] = conditions: 72 h
Procedure, shortened: as §1

MDA-MB-231 [4] = conditions: 72 h
Procedure, shortened: as §1

CAL-85-1 [5] = conditions: 72 h
Procedure, shortened: as §1

MDA-MB-453 [6] = conditions: 72 h
Procedure, shortened: as §1

MDA-MB-436 [7] = conditions: 72 h
Procedure, shortened: as §1

SK-BR-3 [8] = conditions: 72 h
Procedure, shortened: as §1

MCF-10A = conditions: 72 h
Procedure, shortened: as §1

CAL-51 [9] = conditions: 72 h
Procedure, shortened: as §1

HCC1937 [10] = conditions: 72 h
Procedure, shortened: as §1

MDA-MB-436 [11] = assay: normalised viability (% of control), CellTiter-Blue; higher = more viable cells (100 = DMSO, 0 = benzethonium chloride kill control); conditions: 1 nM; incubation time: 72 h
Description: (§2)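 DSRT, CellTiter-Blue viability, 72 h incubation. Signal is normalised to DMSO and benzethonium chloride controls. Value is the normalised response at dose 1.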

Hs578T [12] = assay: as above; conditions: 1 nM; incubation time: 72 h
Description: as §2

CAL-120 = assay: normalised viability (% of control), CellTiter-Blue; higher = more viable cells (about 100 = DMSO control); conditions: incubation time: 72 h
Procedure, shortened: (§3)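 Each entry is normalised viability at a single listed concentration within a series. It comes from breast cancer cell lines incubated 72 h with compound in 384-well plates, then measured with CellTiter-Blue fluorescence at 560/590 nm. Every plate was normalised between vehicle (100) and a positive kill control (0).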

MDA-MB-468 [13] = assay: as above; conditions: incubation time: 72 h
Procedure, shortened: as §3

HDQ-P1 [14] = assay: as above; conditions: incubation time: 72 h
Procedure, shortened: as §3

DU-4475 = assay: as above; conditions: incubation time: 72 h
Procedure, shortened: as §3

HCC1599 = assay: as above; conditions: incubation time: 72 h
Procedure, shortened: as §3

BT-474 [15] = assay: as above; conditions: incubation time: 72 h
Procedure, shortened: as §3

BT-549 [16] = assay: as above; conditions: incubation time: 72 h
Procedure, shortened: as §3

MDA-MB-231 [17] = assay: as above; conditions: incubation time: 72 h
Procedure, shortened: as §3

CAL-85-1 [18] = assay: as above; conditions: incubation time: 72 h
Procedure, shortened: as §3

HCC1143 = assay: as above; conditions: incubation time: 72 h
Procedure, shortened: as §3

MDA-MB-453 [19] = assay: as above; conditions: incubation time: 72 h
Procedure, shortened: as §3

MDA-MB-436 [20] = assay: as above; conditions: incubation time: 72 h
Procedure, shortened: as §3

SK-BR-3 [21] = assay: as above; conditions: incubation time: 72 h
Procedure, shortened: as §3

Hs578T [22] = assay: as above; conditions: incubation time: 72 h
Procedure, shortened: as §3

CAL-148 [23] = assay: as above; conditions: incubation time: 72 h
Procedure, shortened: as §3

MFM-223 = assay: as above; conditions: incubation time: 72 h
Procedure, shortened: as §3

CAL-51 [24] = assay: as above; conditions: incubation time: 72 h
Procedure, shortened: as §3

HCC1937 [25] = assay: as above; conditions: incubation time: 72 h
Procedure, shortened: as §3

HDQ-P1 [26] = assay: as above; conditions: incubation time: 72 h; remark: listed apart in the source
Procedure, shortened: as §3

BT-474 [27] = assay: as above; conditions: incubation time: 72 h; remark: listed apart in the source
Procedure, shortened: as §3

MDA-MB-231 [28] = assay: as above; conditions: incubation time: 72 h; remark: listed apart in the source
Procedure, shortened: as §3

MDA-MB-436 [29] = assay: as above; conditions: incubation time: 72 h; remark: listed apart in the source
Procedure, shortened: as §3

CAL-148 [30] = assay: as above; conditions: incubation time: 72 h; remark: listed apart in the source
Procedure, shortened: as §3

- EC50, CellTiter-Glo (MDA-MB-468 [1]): 3.05 µM
- EC50, CellTiter-Glo (BT-474 [2]): 2.87 µM
- EC50, CellTiter-Glo (BT-549 [3]): 4.44 µM
- EC50, CellTiter-Glo (MDA-MB-231 [4]): 2.8 µM
- EC50, CellTiter-Glo (MDA-MB-453 [6]): 3.37 µM
- EC50, CellTiter-Glo (MDA-MB-436 [7]): 4.81 µM
- EC50, CellTiter-Glo (SK-BR-3 [8]): 3.33 µM
- EC50, CellTiter-Glo (HCC1937 [10]): 3.9 µM
SMILES: CCCCCCCCc1ccc(CCC(N)(CO)CO)cc1 [Fingolimod]
- EC50, CellTiter-Glo (CAL-85-1 [5]): 3.34 µM
- EC50, CellTiter-Glo (MCF-10A): 3.35 µM
- EC50, CellTiter-Glo (CAL-51 [9]): 2.04 µM
- normalised viability (MDA-MB-436 [11]): 113%
- normalised viability (Hs578T [12]): 97.6%
- normalised viability (CAL-120; 10 nM): 91%
- normalised viability (MDA-MB-468 [13]; 10 nM): 106%
- normalised viability (HDQ-P1 [14]; 3 nM): 116%
- normalised viability (DU-4475; 3 nM): 103%
- normalised viability (HCC1599; 10 nM): 88.3%
- normalised viability (BT-474 [15]; 10 nM): 121%
- normalised viability (BT-549 [16]; 10 nM): 94%
- normalised viability (MDA-MB-231 [17]; 10 nM): 94.8%
- normalised viability (CAL-85-1 [18]; 3 nM): 92.2%
- normalised viability (HCC1143; 10 nM): 80.8%
- normalised viability (MDA-MB-453 [19]; 3 nM): 114%
- normalised viability (MDA-MB-436 [20]; 10 nM): 100%
- normalised viability (SK-BR-3 [21]; 10 nM): 106%
- normalised viability (Hs578T [22]; 10 nM): 98.1%
- normalised viability (CAL-148 [23]; 3 nM): 85.7%
- normalised viability (MFM-223; 10 nM): 92.5%
- normalised viability (CAL-51 [24]; 3 nM): 119%
- normalised viability (HCC1937 [25]; 10 nM): 116%
- normalised viability (HDQ-P1 [26]; 100 nM): 111%
- normalised viability (BT-474 [27]; 10000 nM): 2.28%
- normalised viability (MDA-MB-231 [28]; 10000 nM): 0.68%
- normalised viability (MDA-MB-436 [29]; 10000 nM): 4.17%
- normalised viability (CAL-148 [30]; 100 nM): 87%

SMILES: Cc1cc2c(C(C)C)c(O)c(O)c(C=O)c2c(O)c1-c1c(C)cc2c(C(C)C)c(O)c(O)c(C=O)c2c1O [Gossypol]
- normalised viability (CAL-120; 100 nM): 109%
- normalised viability (MDA-MB-468 [13]; 100 nM): 101%
- normalised viability (HDQ-P1 [14]; 30 nM): 139%
- normalised viability (DU-4475; 30 nM): 94.1%
- normalised viability (HCC1599; 100 nM): 87.6%
- normalised viability (BT-474 [15]; 100 nM): 115%
- normalised viability (BT-549 [16]; 100 nM): 114%
- normalised viability (MDA-MB-231 [17]; 100 nM): 94.1%
- normalised viability (CAL-85-1 [18]; 30 nM): 101%
- normalised viability (HCC1143; 100 nM): 115%
- normalised viability (MDA-MB-453 [19]; 30 nM): 106%
- normalised viability (MDA-MB-436 [20]; 100 nM): 106%
- normalised viability (SK-BR-3 [21]; 100 nM): 106%
- normalised viability (Hs578T [22]; 100 nM): 137%
- normalised viability (CAL-148 [23]; 30 nM): 94.2%
- normalised viability (MFM-223; 100 nM): 105%
- normalised viability (CAL-51 [24]; 30 nM): 97.1%
- normalised viability (HCC1937 [25]; 100 nM): 116%
- normalised viability (HDQ-P1 [26]; 1000 nM): 128%
- normalised viability (BT-474 [27]; 100000 nM): 20.4%
- normalised viability (MDA-MB-231 [28]; 100000 nM): 5.74%
- normalised viability (MDA-MB-436 [29]; 100000 nM): 1.2%
- normalised viability (CAL-148 [30]; 1000 nM): 107%

SMILES: O=C(O)CCCc1ccc(N(CCCl)CCCl)cc1 [Chlorambucil]
- normalised viability (MDA-MB-436 [11]): 105%
- normalised viability (Hs578T [12]): 99.4%
- normalised viability (CAL-120; 10 nM): 104%
- normalised viability (MDA-MB-468 [13]; 10 nM): 107%
- normalised viability (HDQ-P1 [14]; 3 nM): 114%
- normalised viability (DU-4475; 3 nM): 101%
- normalised viability (HCC1599; 10 nM): 108%
- normalised viability (BT-474 [15]; 10 nM): 120%
- normalised viability (BT-549 [16]; 10 nM): 80.9%
- normalised viability (MDA-MB-231 [17]; 10 nM): 101%
- normalised viability (CAL-85-1 [18]; 3 nM): 101%
- normalised viability (HCC1143; 10 nM): 83.5%
- normalised viability (MDA-MB-453 [19]; 3 nM): 131%
- normalised viability (MDA-MB-436 [20]; 10 nM): 89.7%
- normalised viability (SK-BR-3 [21]; 10 nM): 113%
- normalised viability (Hs578T [22]; 10 nM): 111%
- normalised viability (CAL-148 [23]; 3 nM): 98%
- normalised viability (MFM-223; 10 nM): 95.5%
- normalised viability (CAL-51 [24]; 3 nM): 115%
- normalised viability (HCC1937 [25]; 10 nM): 51.5%
- normalised viability (HDQ-P1 [26]; 100 nM): 111%
- normalised viability (BT-474 [27]; 10000 nM): 118%
- normalised viability (MDA-MB-231 [28]; 10000 nM): 88.4%
- normalised viability (MDA-MB-436 [29]; 10000 nM): 83.3%
- normalised viability (CAL-148 [30]; 100 nM): 103%
